Laboratory results from US8053603B2, “Tetralone-based monoamine reuptake inhibitors” (Sunovion Pharmaceuticals Inc., priority 2006, dated 2011).
Like-named read-outs stand apart in the source and are kept apart here.

Legend:
Type in all cases: cell-based
[1] = biological target: T1, recombinant human serotonin transporter (Homo sapiens, UniProt P31645); assay: Serotonin functional uptake assay for human reuptake transporter; details: [3H]serotonin uptake, HEK-293 cells expressing human serotonin transporter; read-out: Human IC50 (nM) SERT
T1 construct: expressed in transfected cells; host or cells: HEK-293
T1 sequence (P31645 whole entry): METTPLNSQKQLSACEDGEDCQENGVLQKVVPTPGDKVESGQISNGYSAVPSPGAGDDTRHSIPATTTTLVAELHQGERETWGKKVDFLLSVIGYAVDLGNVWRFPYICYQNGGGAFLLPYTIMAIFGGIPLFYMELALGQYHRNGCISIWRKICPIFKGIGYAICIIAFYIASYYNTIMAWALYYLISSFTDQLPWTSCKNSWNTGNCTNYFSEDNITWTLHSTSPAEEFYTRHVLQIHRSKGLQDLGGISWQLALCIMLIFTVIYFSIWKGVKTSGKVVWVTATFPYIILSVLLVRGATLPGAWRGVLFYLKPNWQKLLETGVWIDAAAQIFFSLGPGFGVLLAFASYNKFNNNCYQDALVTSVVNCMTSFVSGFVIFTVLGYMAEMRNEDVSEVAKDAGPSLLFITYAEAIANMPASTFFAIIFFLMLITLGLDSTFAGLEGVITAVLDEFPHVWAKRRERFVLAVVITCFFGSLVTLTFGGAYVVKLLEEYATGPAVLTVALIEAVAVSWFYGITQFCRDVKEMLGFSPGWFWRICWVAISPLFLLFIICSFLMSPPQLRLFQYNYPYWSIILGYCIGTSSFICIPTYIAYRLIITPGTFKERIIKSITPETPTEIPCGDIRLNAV
Protocol: Serotonin Functional Uptake Assay for Human Reuptake Transporter
HEK-293 cells expressing human serotonin transporter were plated before the assay. […] Cells with internalized [^3H]serotonin were washed and the amount of tritium taken into cells is counted using a liquid scintillation counter to determine [^3H]serotonin uptake.

[2] = biological target: T2, recombinant human norepinephrine transporter (Homo sapiens, UniProt P23975); assay: Norepinephrine functional uptake assay for human reuptake transporter; details: [3H]norepinephrine uptake, HEK293 or MDCK cells expressing human norepinephrine transporter
T2 construct: expressed in transfected cells; host or cells: HEK293 or MDCK
T2 sequence (P23975 whole entry): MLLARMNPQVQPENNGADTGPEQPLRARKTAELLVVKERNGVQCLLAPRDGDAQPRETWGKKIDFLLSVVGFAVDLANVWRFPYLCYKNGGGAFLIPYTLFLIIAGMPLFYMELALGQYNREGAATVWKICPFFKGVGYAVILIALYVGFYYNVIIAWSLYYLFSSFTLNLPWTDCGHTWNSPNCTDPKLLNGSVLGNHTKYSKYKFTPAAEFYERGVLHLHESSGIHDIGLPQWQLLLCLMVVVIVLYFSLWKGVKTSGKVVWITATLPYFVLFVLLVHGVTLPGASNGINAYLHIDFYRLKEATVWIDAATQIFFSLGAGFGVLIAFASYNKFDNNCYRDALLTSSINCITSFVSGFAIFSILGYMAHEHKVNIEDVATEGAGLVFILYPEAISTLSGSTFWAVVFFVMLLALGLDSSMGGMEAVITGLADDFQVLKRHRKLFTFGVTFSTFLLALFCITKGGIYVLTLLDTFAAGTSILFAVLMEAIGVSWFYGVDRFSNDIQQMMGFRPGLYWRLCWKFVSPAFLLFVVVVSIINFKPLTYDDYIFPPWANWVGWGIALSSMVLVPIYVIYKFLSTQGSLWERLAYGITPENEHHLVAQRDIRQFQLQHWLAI
Protocol: Norepinephrine Functional Uptake Assay for Human Reuptake Transporter
The cells were plated before the assay. Test compound and/or vehicle was preincubated with cells in modified HEPES buffer pH 7.1 or pH 7.4 for 20 minutes at 18 to 25° C. . […] After the cells were washed to remove [^3H]norepinephrine not internalized, the cells were lysed, and the amount of tritium in the cell lysate was measured using a liquid scintillation counter to determine [^3H]norepinephrine uptake. Non-specific binding of tritium was measured in a control reaction containing 10 μM imipramine (or 10 μM nisoxetine), and was subtracted from the counts for assays to correct for non-specific binding of tritium. Reduction of [^3H]norepinephrine uptake by 50 percent or more (≧50%) relative to an uninhibited control reaction indicates significant inhibitory activity.

[3] = biological target: T3, recombinant human dopamine transporter (Homo sapiens, UniProt Q01959); assay: Dopamine functional uptake assay for human reuptake transporter
T3 construct: expressed in transfected cells; host or cells: CHO-K1 or HEK293
T3 sequence (Q01959 whole entry): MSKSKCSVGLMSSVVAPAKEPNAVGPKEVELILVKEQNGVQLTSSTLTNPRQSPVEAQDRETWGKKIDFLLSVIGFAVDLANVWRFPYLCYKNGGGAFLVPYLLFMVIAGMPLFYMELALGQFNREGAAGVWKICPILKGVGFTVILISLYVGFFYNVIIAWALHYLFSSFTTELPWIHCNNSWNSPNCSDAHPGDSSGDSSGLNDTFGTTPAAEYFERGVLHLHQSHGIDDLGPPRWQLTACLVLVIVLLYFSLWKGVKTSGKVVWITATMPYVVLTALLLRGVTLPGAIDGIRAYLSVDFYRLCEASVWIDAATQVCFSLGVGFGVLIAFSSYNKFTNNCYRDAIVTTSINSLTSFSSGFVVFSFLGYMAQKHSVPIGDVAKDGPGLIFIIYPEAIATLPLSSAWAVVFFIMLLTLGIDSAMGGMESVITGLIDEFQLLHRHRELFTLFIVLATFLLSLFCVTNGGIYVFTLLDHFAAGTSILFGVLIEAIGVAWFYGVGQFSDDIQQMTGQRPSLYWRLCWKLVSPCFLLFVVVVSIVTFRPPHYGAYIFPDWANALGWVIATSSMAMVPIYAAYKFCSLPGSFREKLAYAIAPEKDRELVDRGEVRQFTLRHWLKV
Protocol: Dopamine Functional Uptake Assay for Human Reuptake Transporter
Either CHO-K1 or HEK293 cells expressing human recombinant dopamine transporter were plated before the assay. Test compound and/or vehicle was preincubated with cells in modified HEPES buffer pH 7.1 or pH 7.4 for 20 minutes at 18 to 25° C. and 50 nM [^3H]dopamine was then added for an additional timed incubation period (10 to 30 minutes). After washing the cells to remove [^3H]dopamine not internalized, the cells were lysed, and the amount of tritium in the lysate was measured using a liquid scintillation counter to determine [^3H]dopamine uptake. Non-specific binding of tritium was measured in a control reaction containing 10 μM nomifensine, and was subtracted from the counts for assays to correct for non-specific binding of tritium. Reduction of [^3H]dopamine uptake by 50 percent or more (≧50%) relative to an uninhibited control reaction indicates significant inhibitory activity.

[4] = [3H]dopamine uptake, CHO-K1 or HEK293 cells expressing human dopamine transporter, read-out: Human IC50 (nM) DAT

Compound: CN[C@@H]1Cc2cccc(OC)c2[C@H](c2ccc(Cl)c(Cl)c2)C1 (single isomer, unassigned) [Compound 32b.2, 4-(3,4-dichlorophenyl)-5-methoxy-N-methyl-1,2,3,4-tetrahydronaphthalen-2-amine]
- IC50 [1]: 307 nM
- IC50 ([2]; read-out: Human IC50 (nM) NET): 2320 nM
- IC50 [3, 4]: 496 nM

Compound: CN[C@H]1Cc2ccccc2[C@H](c2ccc(Cl)c(Cl)c2)C1 (single isomer, unassigned) [Compound 7c, 4-(3,4-dichlorophenyl)-N-methyl-1,2,3,4-tetrahydronaphthalen-2-amine]
- IC50 [3, 4]: 281 nM

Compound: CN[C@H]1Cc2ccccc2[C@H](c2ccc(Cl)c(Cl)c2)C1 (single isomer, unassigned) [Compound 7b, 4-(3,4-dichlorophenyl)-N-methyl-1,2,3,4-tetrahydronaphthalen-2-amine]
- IC50 [3, 4]: 62 nM

Compound: CN(C)[C@H]1Cc2ccccc2[C@H](c2ccc(Cl)c(Cl)c2)C1 (single isomer, unassigned) [Compound 8b, [4-(3,4-dichlorophenyl)-1,2,3,4-tetrahydro-naphthalen-2-yl]-dimethylamine]
- IC50 ([2]; Human IC50 (nM) NET): 174 nM
- IC50 [3, 4]: 176 nM

Compound: CN[C@H]1Cc2ccccc2[C@H](c2ccc(Cl)c(Cl)c2)C1 [Compound 7a, 4-(3,4-dichlorophenyl)-N-methyl-1,2,3,4-tetrahydronaphthalen-2-amine]
- IC50 [3, 4]: 114 nM

Compound: N[C@H]1Cc2ccccc2[C@H](c2ccc(Cl)c(Cl)c2)C1 (single isomer, unassigned) [Compound 6d, [4-(3,4-dichlorophenyl)-1,2,3,4-tetrahydro-naphthalen-2-yl]-amine]
- IC50 ([2]; Human IC50 (nM) NET): 174 nM
- IC50 ([3]; Human IC50 (nM) DAT): 175 nM

Compound: CN(C)[C@H]1CCc2ccccc2[C@H]1c1ccc(Cl)c(Cl)c1 (single isomer, unassigned) [Compound 37b, 1-(3,4-dichlorophenyl)-N,N-dimethyl-1,2,3,4-tetrahydronaphthalen-2-amine]
- IC50 [1]: 742 nM
- IC50 ([2]; read-out: Human IC50 (nM) NET): 499 nM
- IC50 [3, 4]: 106 nM

Compound: CN(C)C1CC(c2ccc(Cl)c(Cl)c2)c2ccccc2C1O (single isomer, unassigned) [Compound 23b, 4-(3,4-dichlorophenyl)-2-(dimethylamino)-1,2,3,4-tetrahydronaphthalen-1-ol]
- IC50 [1]: 1300 nM
- IC50 ([2]; Human IC50 (nM) NET): 48 nM
- IC50 [3, 4]: 67 nM

Compound: CC([C@@H]1Cc2ccccc2[C@H](c2ccc(Cl)c(Cl)c2)C1)N(C)C (single isomer, unassigned) [Compound 54]
- IC50 [1]: 815 nM
- IC50 ([2]; read-out: Human IC50 (nM) NET): 1700 nM
- IC50 [3, 4]: 1900 nM

Compound: COc1ccc2c(c1)C[C@H](N(C)C)C[C@@H]2c1ccc(Cl)c(Cl)c1 (single isomer, unassigned) [Compound 33c.2, 4-(3,4-dichlorophenyl)-7-methoxy-N,N-dimethyl-1,2,3,4-tetrahydronaphthalen-2-amine]
- IC50 [1]: 8 nM
- IC50 ([2]; read-out: Human IC50 (nM) NET): 684 nM
- IC50 [3, 4]: 67 nM

Compound: COc1ccc2c(c1)C(c1ccc(Cl)c(Cl)c1)CC(N(C)C)C2 (single isomer, unassigned) [Compound 33a.4, 4-(3,4-dichlorophenyl)-6-methoxy-N,N-dimethyl-2,3,4-tetrahydronaphthalen-2-amine]
- IC50 [1]: 808 nM
- IC50 ([2]; read-out: Human IC50 (nM) NET): 1700 nM
- IC50 [3, 4]: 1410 nM

Compound: CC(N)[C@@H]1Cc2ccccc2[C@H](c2ccc(Cl)c(Cl)c2)C1 (single isomer, unassigned) [Compound 52]
- IC50 [1]: 8 nM
- IC50 ([2]; Human IC50 (nM) NET): 122 nM
- IC50 [3, 4]: 622 nM

Compound: COc1ccc2c(c1)C(c1ccc(Cl)c(Cl)c1)CC(N(C)C)C2 (single isomer, unassigned) [Compound 33a.2, 4-(3,4-dichlorophenyl)-6-methoxy-N,N-dimethyl-2,3,4-tetrahydronaphthalen-2-amine]
- IC50 [1]: 156 nM
- IC50 ([2]; read-out: Human IC50 (nM) NET): 2260 nM
- IC50 [3, 4]: 396 nM

Compound: CN(C)CC1Cc2ccccc2C(c2ccc(Cl)c(Cl)c2)C1 (single isomer, unassigned) [Compound 16b, [4-(3,4-dichlorophenyl)-1,2,3,4-tetrahydro-naphthalen-2-ylmethyl]-dimethylamine]
- IC50 ([2]; Human IC50 (nM) NET): 309 nM

Compound: CNC[C@H]1Cc2ccccc2[C@H](c2ccc(Cl)c(Cl)c2)C1 [Compound 15a, [4-(3,4-dichlorophenyl)-1,2,3,4-tetrahydro-naphthalen-2-ylmethyl]-methylamine]
- IC50 ([2]; read-out: Human IC50 (nM) NET): 72 nM
- IC50 [3, 4]: 125 nM

Compound: CNC[C@H]1Cc2ccccc2[C@H](c2ccc(Cl)c(Cl)c2)C1 (single isomer, unassigned) [Compound 15c, [4-(3,4-dichlorophenyl)-1,2,3,4-tetrahydro-naphthalen-2-ylmethyl]-methylamine]
- IC50 ([2]; Human IC50 (nM) NET): 210 nM
- IC50 [3, 4]: 111 nM

Compound: CN(C)[C@H]1Cc2ccccc2[C@H](c2ccc(Cl)c(Cl)c2)C1 (single isomer, unassigned) [Compound 8c, [4-(3,4-dichlorophenyl)-1,2,3,4-tetrahydro-naphthalen-2-yl]-dimethylamine]
- IC50 ([2]; Human IC50 (nM) NET): 164 nM
- IC50 [3, 4]: 273 nM

Compound: N[C@H]1Cc2ccccc2[C@H](c2ccc(Cl)c(Cl)c2)C1 [Compound 6a, [4-(3,4-dichlorophenyl)-1,2,3,4-tetrahydro-naphthalen-2-yl]-amine]
- IC50 ([2]; read-out: Human IC50 (nM) NET): 124 nM
- IC50 ([3]; read-out: Human IC50 (nM) DAT): 350 nM

Compound: CN[C@H]1CCc2ccccc2[C@H]1c1ccc(Cl)c(Cl)c1 (single isomer, unassigned) [Compound 36b, 1-(3,4-dichlorophenyl)-N-methyl-1,2,3,4-tetrahydronaphthalen-2-amine]
- IC50 ([2]; read-out: Human IC50 (nM) NET): 7090 nM

Compound: CN(C)[C@H]1Cc2ccccc2[C@H](c2ccc(Cl)c(Cl)c2)C1 (single isomer, unassigned) [Compound 8d, [4-(3,4-dichlorophenyl)-1,2,3,4-tetrahydro-naphthalen-2-yl]-dimethylamine]
- IC50 ([2]; Human IC50 (nM) NET): 98 nM
- IC50 [3, 4]: 319 nM

Compound: CN(C)CC1Cc2ccccc2C(c2ccc(Cl)c(Cl)c2)C1 (single isomer, unassigned) [Compound 16a, [4-(3,4-dichlorophenyl)-1,2,3,4-tetrahydro-naphthalen-2-ylmethyl]-dimethylamine]
- IC50 ([2]; Human IC50 (nM) NET): 565 nM

Compound: N[C@H]1Cc2ccccc2[C@H](c2ccc(Cl)c(Cl)c2)C1 (single isomer, unassigned) [Compound 6c, [4-(3,4-dichlorophenyl)-1,2,3,4-tetrahydro-naphthalen-2-yl]-amine]
- IC50 ([2]; Human IC50 (nM) NET): 855 nM
- IC50 ([3]; Human IC50 (nM) DAT): 894 nM

Compound: CNC[C@H]1Cc2ccccc2[C@H](c2ccc(Cl)c(Cl)c2)C1 (single isomer, unassigned) [Compound 15b, [4-(3,4-dichlorophenyl)-1,2,3,4-tetrahydro-naphthalen-2-ylmethyl]-methylamine]
- IC50 ([2]; Human IC50 (nM) NET): 126 nM
- IC50 [3, 4]: 103 nM

Compound: N[C@H]1Cc2ccccc2[C@H](c2ccc(Cl)c(Cl)c2)C1 (single isomer, unassigned) [Compound 6b, [4-(3,4-dichlorophenyl)-1,2,3,4-tetrahydro-naphthalen-2-yl]-amine]
- IC50 ([2]; Human IC50 (nM) NET): 731 nM
- IC50 ([3]; Human IC50 (nM) DAT): 408 nM

Compound: CN[C@H]1Cc2ccccc2[C@H](c2ccc(Cl)c(Cl)c2)C1 (single isomer, unassigned) [Compound 7d, 4-(3,4-dichlorophenyl)-N-methyl-1,2,3,4-tetrahydronaphthalen-2-amine]
- IC50 [3, 4]: 72 nM

Compound: CNC[C@H]1Cc2ccccc2[C@H](c2ccc(Cl)c(Cl)c2)C1 (single isomer, unassigned) [Compound 15d, [4-(3,4-dichlorophenyl)-1,2,3,4-tetrahydro-naphthalen-2-ylmethyl]-methylamine]
- IC50 ([2]; Human IC50 (nM) NET): 372 nM
- IC50 [3, 4]: 484 nM

Compound: CN[C@H]1CCc2ccccc2[C@H]1c1ccc(Cl)c(Cl)c1 (single isomer, unassigned) [Compound 36c, 1-(3,4-dichlorophenyl)-N-methyl-1,2,3,4-tetrahydronaphthalen-2-amine]
- IC50 ([2]; read-out: Human IC50 (nM) NET): 745 nM
- IC50 [3, 4]: 88 nM

Compound: CN[C@H]1CCc2ccccc2[C@H]1c1ccc(Cl)c(Cl)c1 (single isomer, unassigned) [Compound 36a, 1-(3,4-dichlorophenyl)-N-methyl-1,2,3,4-tetrahydronaphthalen-2-amine]
- IC50 ([2]; read-out: Human IC50 (nM) NET): 3450 nM
- IC50 [3, 4]: 511 nM

Compound: CN[C@H]1CCc2ccccc2[C@H]1c1ccc(Cl)c(Cl)c1 (stereo in doubt) [Compound 36d, 1-(3,4-dichlorophenyl)-N-methyl-1,2,3,4-tetrahydronaphthalen-2-amine]
- IC50 ([2]; read-out: Human IC50 (nM) NET): 1620 nM
- IC50 [3, 4]: 204 nM

Compound: CN(C)[C@H]1Cc2ccccc2[C@H](c2ccc(Cl)c(Cl)c2)C1 [Compound 8a, [4-(3,4-dichlorophenyl)-1,2,3,4-tetrahydro-naphthalen-2-yl]-dimethylamine]
- IC50 ([2]; read-out: Human IC50 (nM) NET): 167 nM
- IC50 [3, 4]: 454 nM
